Laboratory results published in US20060147924A1, “Population of nucleic acids including a subpopulation of lna oligomers” (priority 2002, published 2006).
Blank lines part the entries; values can stand above or below the compound they belong to.

Tests used:
[1] = system: caacaacccaca; experiment: Tm of chimeric LNA-DNA 12-mers, HNFas128A-2, singly mismatched duplex; type: binding; settings: for Tm (± 0.5° C.) of the duplexes with DNA oligonucleotide caacaacccaca: Table 5, HNFas128A-2, singly mismatched, duplexes 2 μM, buffer as Table 4; for ΔTm between singly mismatched and perfect duplexes (HNFas128A-2): Table 5, value in brackets
Description: (§1) The thermal denaturation experiments were performed on a Perkin-Elmer UV/VIS spectrometer fitted with a PTP-6 Peltier temperature-programming element using a medium salt buffer solution (10 mM sodium phosphate, 100 mM sodium chloride, 0.1 mM EDTA, pH 7.0). […] The absorbance was monitored at 260 nm while raising the temperature at a rate of 1° C. per min. The melting temperatures (Tm values) of the duplexes were determined as the maximum of the first derivatives of the melting curves obtained.

[2] = system: caacatcccaca; experiment: Tm of chimeric LNA-DNA 12-mers, HNFas128A-2, perfect duplex; type: binding; settings: Table 5, HNFas128A-2, perfect duplex; duplexes 2 μM; buffer as Table 4
Description: as §1

[3] = system: self complementary duplex; experiment: Tm of self complementary duplexes of dual labeled SBC-LNA probes; type: binding; settings: Table 7, duplexes 2 μM, 0.1 M NaCl, 10 mM Na-phosphate pH 7.0, 1 mM EDTA
Description: (§2) (entry 1) to 53.5° C. (entry 2) thus verifying the reduced strength of the intramolecular hydrogen bonds of the self complementary oligonucleotide. At the same time the oligonucleotides containing the SBC LNA monomers are able to hybridize to complementary DNA due to the increased binding efficiency of LNA-D and LNA-^2SU. Similarly as exemplified in Table 8 (see below) the Tm of a duplex between 2 complementary oligonucleotides containing e.g. 3 SBC LNA pairs (entry 3) is reduced to 59° C. from the corresponding non-SBC LNA duplex (82° C.-entry 1) while the single-stranded SBC LNA oligonucleotides still are capable to hybridize to complementary non-modified LNA oligonucleotides as well as DNA oligonucleotides with increased Tm.

[4] = system: 3′-ctgtatcc; experiment: Thermal denaturation (Tm) of duplexes with complementary DNA 3′-ctgtatcc; type: binding; settings: Table 8; duplexes 2.5 μM; 0.1 M NaCl, 10 mM Na-phosphate pH 7.0, 10 mM EDTA
Description: The complexing properties of oligonucleotides containing new LNA monomers 1-3 were assessed. Comparative binding data from an 8-mer LNA sequence is shown in Table 4 as the melting temperatures against complementary single-stranded DNA. An exemplary sequence for this comparison is GACATAGG, which is the central part of a capture probe used for SNP detection in GluclVS7-7asA (A:a mismatch position). The thermal stabilities of reference DNA duplexes (entries 1-7, Table 4) can be directly compared with their LNA counterparts (entries 8-14). […] The average melting temperatures of DNA and LNA 8-mers against complementary DNAs typically differ by about 40° C. […] (i.e., entries 1 and 4). D-nucleosides may facilitate a B to A helix transition, because the A-type structure of an LNA:DNA duplex is more suitable for effective D:t pairing. This stabilizing effect is expected to be even more pronounced for LNA:RNA duplexes, which can be very useful for construction of antisense or other gene-silencing reagents. The mismatch discrimination ability of the D-nucleoside was also studied (entry 11).
The absorbance was monitored at 260 nm while raising the temperature at a rate of 1° C. per min. The melting temperatures (Tm values) of the duplexes were determined as the maximum of the first derivatives of the melting curves obtained.

[5] = system: 3′-^2SUG^2SUA^2SUC; experiment: Tm of duplexes of 6-mers with SBC-LNA 3′-^2SUG^2SUA^2SUC; type: binding; settings: Table 8; duplexes 2.5 μM; 0.1 M NaCl, 10 mM Na-phosphate pH 7.0, 10 mM EDTA
Description: as §2

[6] = system: 3′-TG^2SUATC; experiment: Tm of duplexes of 6-mers with SBC-LNA 3′-TG^2SUATC; type: binding; settings: Table 8; duplexes 2.5 μM; 0.1 M NaCl, 10 mM Na-phosphate pH 7.0, 10 mM EDTA
Description: as §2

[7] = system: 3′-TGTATC; experiment: Tm of duplexes of 6-mers with LNA 3′-TGTATC; type: binding; settings: Table 8; duplexes 2.5 μM; 0.1 M NaCl, 10 mM Na-phosphate pH 7.0, 10 mM EDTA
Description: as §2

[8] = system: 3′-ACGACCAC-5′; experiment: Tm of LNA:DNA and DNA:DNA 8-mer duplexes, perfect match (Table 2); type: binding
Description: (§3) It is often difficult to design probes and primers with the same range of melting temperature due to the variance in A/T and G/C content of the probing sites. Highly A/T rich regions typically give lower Tm values. Furthermore, if single mismatches are to be resolved, G/T mismatches are known to contribute little to ΔTm. As discussed above, the use of LNA is a desirable way to solve problems related to multiplex use of primers and probes. LNA offers the possibility to adjust Tm and increase the ΔTm at the same time. LNA increases Tm with 4-8° C./substitution and Increases ΔTm in many cases with several 100% (Table 2 and FIG. 22).

[9] = system: 3′-ACGGCCAC-5′; experiment: Tm of LNA:DNA and DNA:DNA 8-mer duplexes, single mismatch (Table 2); type: binding; settings: for ΔTm: perfect match vs single mismatch
Description: as §3

[10] = system: aagaggccagtg; experiment: Tm of chimeric LNA-DNA 12-mers, Gluc53as-A, singly mismatched duplex; type: binding; settings: for Tm (± 0.5° C.) of the duplexes with DNA oligonucleotide aagaggccagtg: Table 5, Gluc53as-A, singly mismatched, duplexes 2 μM, buffer as Table 4; for ΔTm between singly mismatched and perfect duplexes (Gluc53as-A): Table 5, value in brackets
Description: as §1

[11] = system: aagagtccagtg; experiment: Tm of chimeric LNA-DNA 12-mers, Gluc53as-A, perfect duplex; type: binding; settings: Table 5, Gluc53as-A, duplexes 2 μM, buffer as Table 4
Description: as §1

Compound: tGtggGATGttg (TGTGGGATGTTG; chemistry not given here) [chimeric LNA-DNA 12-mer, HNFas128A-2, with LNA-A]
- Tm (± 0.5° C.) of the duplexes with DNA oligonucleotide caacaacccaca [1]: 45.9 °C
- ΔTm between singly mismatched and perfect duplexes (HNFas128A-2) [1]: −15.1 °C
- Tm (± 0.5° C.) of the complementary duplexes with DNA oligonucleotide caacatcccaca [2]: 61.0 °C

Compound: 5′-Fitc-tAAATTTTA-EQL
- Tm ^a of self complementary duplexes [3]: >90 (94-96) ° C.
- Tm ^a of self complementary duplexes ([3]; listed as Table 7 entry 1): 90 °C

Compound: 5′-ACATAG
- Tm of the duplexes with 3′-ctgtatcc [4]: 27 °C
- Tm of the duplexes with 3′-^2SUG^2SUA^2SUC [5]: 83 °C
- Tm of the duplexes with 3′-TG^2SUATC [6]: 85 °C
- Tm of the duplexes with 3′-TGTATC [7]: 82 °C

Compound: 5′-TGCTGGTG-3′ [LNA 8-mer]
- Tm of LNA:DNA Duplexes, Perfect match 3′-ACGACCAC-5′ [8]: 71 °C
- Tm of LNA:DNA Duplexes, Single mismatch 3′-ACGGCCAC-5′ [9]: 45 °C
- ΔTm [9]: 26 °C

Compound: 5′-DCDTDG
- Tm of the duplexes with 3′-ctgtatcc [4]: 55 °C
- Tm of the duplexes with 3′-^2SUG^2SUA^2SUC [5]: 59 °C
- Tm of the duplexes with 3′-TG^2SUATC [6]: 95 °C
- Tm of the duplexes with 3′-TGTATC [7]: >97 °C

Compound: 5′-ACDTAG
- Tm of the duplexes with 3′-ctgtatcc [4]: 37 °C
- Tm of the duplexes with 3′-^2SUG^2SUA^2SUC [5]: 73 °C
- Tm of the duplexes with 3′-TG^2SUATC [6]: 75 °C
- Tm of the duplexes with 3′-TGTATC [7]: 93 °C

Compound: 5′-Fitc-tDDDt^2S U^2SU^2SUa-EQL
- Tm ^a of self complementary duplexes [3]: 64.5 °C

Compound: tGtggGDTGttg
- Tm (± 0.5° C.) of the duplexes with DNA oligonucleotide caacaacccaca [1]: 49.7 °C
- ΔTm between singly mismatched and perfect duplexes (HNFas128A-2) [1]: −15.8 °C
- Tm (± 0.5° C.) of the complementary duplexes with DNA oligonucleotide caacatcccaca [2]: 65.5 °C

Compound: 5′-Fitc-taDDT^2SU^2SUta-EQL
- Tm ^a of self complementary duplexes [3]: 53.5 °C

Compound: cAmCtgGAmCtctt (CACTGGACTCTT; mixed-case modified oligonucleotide, notation key not given here) [chimeric LNA-DNA 12-mer, Gluc53as-A, with LNA-A]
- Tm (± 0.5° C.) of the duplexes with DNA oligonucleotide aagaggccagtg [10]: 50.6 °C
- ΔTm between singly mismatched and perfect duplexes (Gluc53as-A) [10]: −10.9 °C
- Tm (± 0.5° C.) of the complementary duplexes with DNA oligonucleotide aagagtccagtg [11]: 61.5 °C

Compound: cAmCtgGDmCtctt
- Tm (± 0.5° C.) of the duplexes with DNA oligonucleotide aagaggccagtg [10]: 45.4 °C
- ΔTm between singly mismatched and perfect duplexes (Gluc53as-A) [10]: −19.9 °C
- Tm (± 0.5° C.) of the complementary duplexes with DNA oligonucleotide aagagtccagtg [11]: 65.3 °C

Compound: 5′-TGCTGGTG-3′ [DNA 8-mer, reference compound]
- Tm of LNA:DNA Duplexes, Perfect match 3′-ACGACCAC-5′ [8]: 35 °C
- Tm of LNA:DNA Duplexes, Single mismatch 3′-ACGGCCAC-5′ [9]: 25 °C
- ΔTm [9]: 10 °C

- melting point: 227.5 to 229 °C (dec.)
Compound: Nc1ncc2ncn([C@@H]3O[C@@]4(CO)CO[C@@H]3[C@@H]4O)c2n1 [Compound 23, (1S,3R,4R,7S)-3-(2-aminopurin-9-yl)-7-hydroxy-1-hydroxymethyl-2,5-dioxabicyclo[2.2.1]heptane]
